Measured values: US11246898B2 (priority 2017, dated 2022)
Where two headings read alike, the source gives them in different places.

Columns and labels:
[1] = tested on: Ebola virus/Zaire; experiment: microbe, parasite or virus in culture; assay type: cell-based; conditions: Zaire ebolavirus
[2] = in vitro; conditions: African green monkey
[3] = tested on: CellTiter96 (MTS) cells
[4] = tested on: Ebola virus/Zaire; assay type: cell-based

| Molecule | EC50 [1] | CC50 [2] | CC50 [3] | EC50 [4] | EC90 [4] |
| --- | --- | --- | --- | --- | --- |
| NC(=O)c1nc(F)c[nH]c1=O [Favipiravir] | 96 µM | > 1000 µM |  |  |  |
| Allophycocyanin |  |  | >400 µg/mL | 1.77 µg/mL | >400 µg/mL |
